Laboratory results from patent US7067517B2 (priority 2001, dated 2006).
Like-named read-outs stand apart in the source and are kept apart here.

Tests used:
[1] = molecular target: T1, Hormone-sensitive lipase (HSL) (Homo sapiens, UniProt Q05469); assay: biochemical; settings: for activity at 10 µM: read-out: Test 3190.1 HSL_FL % ACTIVITY All
T1 sequence (Q05469 1-1076): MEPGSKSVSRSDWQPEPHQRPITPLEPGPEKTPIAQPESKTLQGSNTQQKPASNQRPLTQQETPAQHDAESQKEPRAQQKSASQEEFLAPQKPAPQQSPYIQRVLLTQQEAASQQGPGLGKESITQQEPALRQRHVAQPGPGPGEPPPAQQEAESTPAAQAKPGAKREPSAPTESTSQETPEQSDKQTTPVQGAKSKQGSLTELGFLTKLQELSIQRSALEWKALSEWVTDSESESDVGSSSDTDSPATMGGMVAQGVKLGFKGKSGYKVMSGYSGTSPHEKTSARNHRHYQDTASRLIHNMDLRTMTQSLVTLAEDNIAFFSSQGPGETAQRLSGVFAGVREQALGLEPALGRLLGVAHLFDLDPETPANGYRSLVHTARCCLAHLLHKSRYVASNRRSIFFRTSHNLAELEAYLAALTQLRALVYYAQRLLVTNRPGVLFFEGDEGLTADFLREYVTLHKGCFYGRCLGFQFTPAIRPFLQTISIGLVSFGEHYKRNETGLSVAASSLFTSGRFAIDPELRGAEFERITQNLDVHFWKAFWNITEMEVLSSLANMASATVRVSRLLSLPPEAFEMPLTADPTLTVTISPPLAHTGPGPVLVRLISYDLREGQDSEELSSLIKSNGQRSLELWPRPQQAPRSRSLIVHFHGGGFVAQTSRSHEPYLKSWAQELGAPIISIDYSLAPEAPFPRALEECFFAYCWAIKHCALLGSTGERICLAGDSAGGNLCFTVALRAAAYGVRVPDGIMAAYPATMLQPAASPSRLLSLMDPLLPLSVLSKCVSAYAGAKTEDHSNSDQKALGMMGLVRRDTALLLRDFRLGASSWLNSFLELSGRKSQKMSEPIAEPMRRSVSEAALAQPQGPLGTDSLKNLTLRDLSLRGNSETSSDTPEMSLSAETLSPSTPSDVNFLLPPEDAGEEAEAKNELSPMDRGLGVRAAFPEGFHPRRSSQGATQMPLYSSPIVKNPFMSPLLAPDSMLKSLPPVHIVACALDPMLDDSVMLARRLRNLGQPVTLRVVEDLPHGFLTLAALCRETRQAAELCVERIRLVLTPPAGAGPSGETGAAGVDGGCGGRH
Procedure: Materials. The Hormone-sensitive lipase was provided by Dr. Cecilia Holm, from Lund University Sweden or produced and purified by Novo Nordisk (NN) using the reagents and protocols used by Dr. Holm. […] All other reagents are of commercial grade and obtained from various commercial sources.
BSA is added as product receptor. The transfer of the fluorochrome from the lipid phase to the water (BSA) phase changes the fluorescent properties of the fluorochrome. The changes can be monitored on a fluorimeter with an excitation wavelength of 450 nm and an emission wavelength of 545 nm.
Compound and HSL (20 μL compound, 10 μL enzyme and 70 μL PED-BSA buffer) is pre-incubated for 30 min at 25° C. before addition of substrate (100 μL). Amount of formed product is measured after 120 min incubation at 37° C.

[2] = molecular target: T1, Hormone-sensitive lipase (HSL); assay: Test 2848.2: high-volume screening assay, para-nitrophenyl butyrate (p-NPB) substrate; format: biochemical; settings: UV-abs 405 nm, 20 min room temp, % Eff (% Inhibition)
Text: Materials. The Hormone-sensitive lipase was provided by Dr. Cecilia Holm, from Lund University Sweden or produced and purified by Novo Nordisk (NN) using the reagents and protocols used by Dr. Holm. The substrates used are: ^3H-labeled triolein (TO) from Amersham, Buckinghamshire, U.K. cat No. TRA191; 5–20 Ci/mmol dissolved in toluene, triolein (Sigma, Cat. No. T-1740), fluorochrome-labeled triacylglyceride (cis-octadec-9-enoic acid 2-[12-(7-nitrobenzo[1,2,5]oxadiazol-4-ylamino)dodecanoyloxy]-1-cis-octadec-9-enoyloxymethyl-ethyl ester) prepared by Novo Nordisk (NN) by conventional methods, and 1,3-(di[^3H]-stearin), 2-(PEG-Boitin)glycerol prepared in collaboration with Amersham Pharmacia Biotech, UK and described in WO 01/073442. Phosphatidyl choline (PC) and phosphatidyl inositol (PI) are from Sigma (St Luis Mo. cat. Nos. P-3556 and P-5954 respectively). All other reagents are of commercial grade and obtained from various commercial sources.
2848.2: This high-volume screening assay uses para-nitrophenyl butyrate (p-NPB) as substrate for HSL. HSL cleaves p-NPB and the reaction is monitored as an increase in the concentration of para-nitrophenol (p-NP). p-NP can be monitored as an increase in UV-absorbance at 405 nm. The reaction is carried out at room-temp. for 20 min. The action is not stopped, but instead UV-abs is measured at a fixed time (20 min.) Due to autohydrolysis of the substrate the reaction is read at t=0 min. too and t=20 min. and the increase in Abs is calculated as the difference between the two readings. When a compound that inhibits HSL is present, it results in a relative decrease in UV-absorbance. % Eff(% Inhibition)=(S−S0Eff)/(SmaxEff−S0Eff)×100 Where S=signal in UV-abs., S0Eff=assaybuffer alone, SmaxEff=Assaybuffer with the lipase inhibitor.

[3] = 10 μM sample concentration, percent activity relative to a non-inhibited sample (no compound)

O=C(Oc1ccc(Oc2c(Cl)cncc2Cl)cc1)N1CCOCC1 [Example 85, Morpholine-4-carboxylic acid 4-(3,5-dichloro-pyridin-4-yloxy)-phenyl ester]
activity at 10 µM [1, 3]: 88%

CN(C(=O)Oc1ccc(OC(C)(C)C)cc1)c1ccccc1 [Example 11, Methyl-phenyl-carbamic acid 4-tert-butoxy-phenyl ester]
activity at 10 µM [1]: 17%

O=C(Oc1ccc(Oc2ccc3c(C(F)(F)F)cc(C(F)(F)F)nc3n2)cc1)N1CCOCC1 [Example 90, Morpholine-4-carboxylic acid 4-(5,7-bis-trifluoromethyl-[1,8]naphthypyridin-2-yloxy)-phenyl ester]
Test 3190.1 HSL_FL % ACTIVITY All [1, 3]: 24%

CN(C(=O)Oc1ccc(Oc2ccc(C(F)(F)F)cn2)cc1)C1CCCCC1 [Example 59, Cyclohexyl-methyl-carbamic acid 4-(5-trifluoromethyl-pyridin-2-yloxy)-phenyl ester]
activity at 10 µM [1]: 16%

Cc1c(-c2ccccc2)c(=O)oc2cc(OC(=O)N(C)c3ccccc3)ccc12 [Example 47, Methyl-phenyl-carbamic acid 4-methyl-2-oxo-3-phenyl-2H-chromen-7-yl ester]
activity at 10 µM [1]: 42%

COc1ccc(OC)c(-c2c(C)c3ccc(OC(=O)N(C)c4ccccc4)cc3oc2=O)c1 [Example 48, Methyl-phenyl-carbamic acid 3-(2,5-dimethoxy-phenyl)-4-methyl-2-oxo-2H-chromen-7-yl ester]
activity at 10 µM [1]: 15%

COc1ccc(OC)c(-c2c(C)c3ccc(OC(=O)N4CCCc5ccccc54)cc3oc2=O)c1 [Example 81, 3,4-Dihydro-2H-quinoline-1-carboxylic acid 3-(2,5-dimethoxy-phenyl)-4-methyl-2-oxo-2H-chromen-7-yl ester]
activity at 10 µM [1, 3]: 36%

CN(C)C(=O)Oc1c(-c2ccccc2)cn(Cc2ccccc2)c(=O)c1-c1ccccc1 [Example 131, Dimethyl carbamic acid 1-benzyl-2-oxo-3,5-diphenyl-1,2-dihydro-pyridin-4-yl ester]
Test 2848.2 HSL % Inhibition All [2]: 21.6%

CC(C)Sc1nnc(OC(=O)N(C)C)n1-c1cccc(C(F)(F)F)c1 [Example 130, Dimethyl-carbamic acid 5-isopropylsulfanyl-4-(3-trifluoromethyl-phenyl)-4H-[1,2,4]triazol-3-yl ester]
Test 2848.2 HSL % Inhibition All [2]: 30.1%

CN(C)C(=O)On1ccc2ccc(S(C)(=O)=O)cc21 [Example 114, Dimethylcarbamic acid 6-methanesulfonyl-indol-1-yl ester]
Test 2848.2 HSL % Inhibition All [2]: 42.4%

CN(C(=O)Oc1ccc(-c2ccc(Br)cc2)cc1)c1ccccc1 [Example 24, Methyl-phenyl-carbamic acid 4′-bromo-biphenyl-4-yl-ester]
activity at 10 µM [1]: 30%

O=C(Nc1ccc(Cl)cc1)n1nc(-c2ccc(Cl)cc2)cc1CCCO [Example 126, N-(4-Chlorophenyl)-3-(4-chlorophenyl)-5-(3-hydroxypropyl)-pyrazole-1-carboxamide]
Test 2848.2 HSL % Inhibition All [2]: 33%

CN(C(=O)Oc1ccc(OC(F)(F)C(F)(F)F)cc1)c1ccccc1 [Example 20]
Test 3190.1 HSL_FL % ACTIVITY All [1, 3]: 51%

CCN(C(=O)Oc1ccc(Oc2ccc(C(F)(F)F)cc2)cc1)c1ccccc1 [Example 54, Ethyl-phenyl-carbamic acid 4-(4-trifluoromethyl-phenoxy)-phenyl ester]
activity at 10 µM [1, 3]: 52%

CCCCCCC(C=Cc1ccc(Cl)cc1)=NOC(=O)NC1CCCCC1 [Example 106, 1-(4-Chlorophenyl)-non-1-en-3-one O-cyclohexylcarbamoyl-oxime]
Test 2848.2 HSL % Inhibition All [2]: 23.8%

CC12CCC(CC1=NOC(=O)NC1CCCCC1)C2(C)C (centres unmarked) [Example 107, 1,7,7-Trimethyl-bicyclo[2.2.1]heptan-2-one O-cyclohexylcarbamoyl-oxime]
Test 2848.2 HSL % Inhibition All [2]: 59.9%

CCCCCCC(C=Cc1ccc(Cl)cc1)=NOC(=O)NC(C)C [Example 109, 1-(4-Chloro-phenyl)-non-1-en-3-one O-isopropylcarbamoyl-oxime]
Test 2848.2 HSL % Inhibition All [2]: 15.9%
